Where two headings read alike, the source gives them in different places.
What was measured:
[1] = target: TOP1 (Homo sapiens (Human), UniProt P11387); assay: Degradation of TOP1 in cells (western blotting); type: cell-based; conditions: list in description
[2] = target: T1, TDP2 (Homo sapiens (Human), UniProt O95551); assay: gel-based TDP2 fluorescence assay in vitro; type: biochemical; conditions: read-out: TDP2 IC50
[3] = test system: human colon cancer cell line HCT116; assay: Synergistic effect with camptothecin (CPT) based on cell viability; conditions: for synergy with camptothecin: list in description
Procedure: The synergistic effects of the TDP1 inhibitors with CPT were tested in human colon cancer cell line HCT116 based on cell viability (Table 3, FIGS. 2-5). Cells were first seeded in a 384-well black-clear plate until 30% confluency and then incubated with a serial dilution of CPT at the range of 0-100 nM in the present or the absence of TDP1 inhibitors for 72 h at 37° C. Viable cell numbers were counted from the brightfield images taken by Biotek Cytation 5 (FIGS. 2-3). Fractional affect (Fa) and combination index (Ci) were analyzed with CompuSyn software. Synergistic scores of each TDP1 inhibitors were calculated and collected based on the data analysis from SynergyFinder (FIG. 4). […]

[4] = target: T1, TDP2; assay: TDP2 degrading activity as stated in the description; conditions: list in description
[5] = target: T2, TDP1 (Homo sapiens (Human), UniProt Q9NUW8); assay: TDP1 gel-based in vitro fluorescence assay; type: biochemical
[6] = target: T2, TDP1; assay: Degradation assay (western blotting) of TDP1 in HCT116 and HEK293 cells; type: cell-based; conditions: list in description
Procedure: The degradation effect of the TDP1 inhibitors on TDP1 in human colon cancer cell line HCT116 and embryonic kidney cell line HEK293 were studied. Cells were first seeded in a 6-well plate until 60-80% confluency and then incubated with a serial dilution of TDP1 inhibitors at the range of 25-200 μM for 24-72 h at 37° C. […] Samples were then sonicated at 30% for 10 s and centrifuged for 15 min at 15000 rpm at 4 Celsius. Supernatant were collected and the concentration of total protein were measured by BCA Protein Assay Kit according to its protocols. Four micrograms of total protein for each sample were loaded and TDP1 level were conducted by western blotting.

[7] = target: T2, TDP1; assay: gel-based TDP1 fluorescence assay of unpurified oxime libraries at 100 μM; type: biochemical; conditions: 100 μM in DMSO, oximes without purification
Procedure: The oximes were evaluated by gel-based TDP1 fluorescence assay in a concentration of 100 μM in DMSO. The fluorescence of DMSO blank vial was set as 0 and the fluorescence for the reference without TDP1 was set as 100%. Preparation: A mixture of aminooxy-containing 105 or 106 (10 μL, 30 mM in DMSO), aldehydes M1-T12 (10 μL, 30 mM in DMSO) and acetic acid (10 μL, 150 mM in DMSO) were agitated at room temperature overnight. Oximes 5-M1-T12 or 6-M1-T12 (30 uL, 10 mM in DMSO) were afforded.
Two set of oximes 105-X and 106-Y (XZ700-M1-T12, XZ699-M1-T12) ([…], 10 mM in DMSO) were prepared about 240 each starting from aminooxy-containing 105 (XZ700) or 106 (XZ699) based on the following method. A mixture of aminooxy-containing 105 or 106 (10 μL, 30 mM in DMSO) with about 240 aldehydes M1-T12 (10 μL, 30 mM in DMSO) (Table 4) separately in the present of acetic acid (10 μL, 150 mM in DMSO) were agitated at room temperature overnight in three 96-well plates in parallel. The formed oximes 105-M1 to 105-T12 and 106-M1 to 106-T12 (30 uL, 10 mM in DMSO) were diluted to 100 μM in DMSO and evaluated by gel-based TDP1 fluorescence assay. The fluorescence of the gel band of DMSO blank vial was set as 0 and the fluorescence for the reference gel band without TDP1 was set as 100%. […] Among them, with same aldehyde structures D1 and P3, both oximes 105-series (105-D1, 105-P3) and 106-series (106-D1, 106-P3) show great (>90%) TDP1 inhibition. […] To confirm the inhibitions, we have further evaluated the purified lead oximes by HPLC. (Table 7; FIG. 9)

[8] = target: T2, TDP1; assay: Lineweaver-Burk plot analysis of TDP1 inhibition; type: biochemical
Procedure: Samples were then analyzed with a 20% DNA sequencing gel and exposed to a PhosphorImager screen for further analysis by Typhoon FLA 9500 (GE Healthcare). The Linearweaver-Burk plots (FIG. 1) were generated based on the substrate concentrations and corresponding reaction velocities.

[9] = Table 8, lead compounds with different linkers
[10] = Table 8, lead compounds with different linkers, read-out: TDP1 IC50
[11] = Table 8, ratio of IC50 TDP2 to TDP1
[12] = purified oximes and SMM leads, read-out: TDP1 IC50

T1 sequence (O95551 whole entry, species assumed): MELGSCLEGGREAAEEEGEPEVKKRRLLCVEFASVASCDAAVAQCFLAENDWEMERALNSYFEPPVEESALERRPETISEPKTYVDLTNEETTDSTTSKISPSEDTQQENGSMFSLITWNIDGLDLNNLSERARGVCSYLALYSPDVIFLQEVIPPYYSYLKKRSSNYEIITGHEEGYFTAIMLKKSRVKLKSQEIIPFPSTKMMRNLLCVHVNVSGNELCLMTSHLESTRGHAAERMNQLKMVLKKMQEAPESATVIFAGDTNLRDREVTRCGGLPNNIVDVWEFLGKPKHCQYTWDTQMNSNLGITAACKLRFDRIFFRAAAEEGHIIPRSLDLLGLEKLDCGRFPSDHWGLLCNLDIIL
T2 sequence (Q9NUW8 whole entry): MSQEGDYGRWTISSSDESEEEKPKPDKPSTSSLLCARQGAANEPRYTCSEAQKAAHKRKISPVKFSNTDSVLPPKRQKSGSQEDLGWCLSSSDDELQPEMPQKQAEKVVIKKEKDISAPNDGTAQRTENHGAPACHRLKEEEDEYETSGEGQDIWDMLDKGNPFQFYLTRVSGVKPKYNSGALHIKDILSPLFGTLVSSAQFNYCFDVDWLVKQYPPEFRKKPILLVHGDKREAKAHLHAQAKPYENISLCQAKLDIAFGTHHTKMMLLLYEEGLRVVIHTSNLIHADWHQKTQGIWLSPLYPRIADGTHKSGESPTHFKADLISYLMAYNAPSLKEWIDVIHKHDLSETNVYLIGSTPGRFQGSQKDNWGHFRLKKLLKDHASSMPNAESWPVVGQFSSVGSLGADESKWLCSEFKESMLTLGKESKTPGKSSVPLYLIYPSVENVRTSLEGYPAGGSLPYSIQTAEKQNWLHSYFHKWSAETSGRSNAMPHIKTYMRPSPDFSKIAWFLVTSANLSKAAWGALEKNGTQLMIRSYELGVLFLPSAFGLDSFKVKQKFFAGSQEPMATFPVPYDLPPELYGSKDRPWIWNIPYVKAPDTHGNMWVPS

Compound	TOP1 degrading activity [1]	IC50 [2, 9] [µM]	synergy with camptothecin [3]	TDP2 degrading activity [4]	IC50 [5, 10] [µM]	TDP1 degrading activity [6]	other results
4-((2-(4-(2-((4-(5-((λ^2-Azaneylidene)-λ^3-methyl)pyridin-2-yl)phenyl)methoxy)ethyl)phenyl)-7-phenylimidazo[1,2-a]pyridin-3-yl)amino)benzoic acid [XZ726]	exhibit TOP1 degrading activity	> 100	exhibit synergy with camptothecin				
N#Cc1ccc(-c2ccc(Cn3cc(-c4ccc(-c5nc6cc(-c7ccccc7)ccn6c5Nc5ccc(C(=O)O)cc5)cc4)nn3)cc2)nc1 [XZ718, 4-((2-(4-(1-(4-(5-Cyanopyridin-2-yl)benzyl)-1H-1,2,3-triazol-4-yl)phenyl)-7-phenylimidazo[1,2-a]pyridin-3-yl)amino)benzoic acid]	exhibit TOP1 degrading activity	25.9 ± 0.4	exhibit synergy with camptothecin	exhibit TDP2 degrading activity	3.1 ± 0.2	exhibit TDP1 degrading activity	FC (fold change) [5, 11]: 8
Cc1cncc(Oc2ccc(C=NOCc3ccc4nc(-c5ccccc5)c(Nc5ccc(C(=O)O)cc5)n4c3)cc2)n1 [Compound 105-P3, 4-((6-((((4-((6-methylpyrazin-2-yl)oxy)benzylidene)amino)oxy)methyl)-2-phenylimidazo[1,2-a]pyridin-3-yl)amino)benzoic acid]							inhibition at 100 µM [7]: > 90%; IC50 [5, 12]: > 100 µM
N#Cc1ccc(-c2ccc(Cn3cc(COc4ccc(-c5nc6cc(-c7ccccc7)ccn6c5Nc5ccc(C(=O)O)cc5)cc4)nn3)cc2)nc1 [XZ720, 4-((2-(4-((1-(4-(5-Cyanopyridin-2-yl)benzyl)-1H-1,2,3-triazol-4-yl)methoxy)phenyl)-7-phenylimidazo[1,2-a]pyridin-3-yl)amino)benzoic acid]	exhibit TOP1 degrading activity	32.9 ± 2.7	exhibit synergy with camptothecin	exhibit TDP2 degrading activity	23.5 ± 3.2	exhibit TDP1 degrading activity	FC (fold change) [5, 11]: 1
O=C(O)c1ccc(Nc2c(-c3ccc(CON=Cc4ccc(N5CCCC5=O)cc4)cc3)nc3cc(-c4ccccc4)ccn23)cc1 [Compound 106-B7, 4-((2-(4-((((4-(2-oxopyrrolidin-1-yl)benzylidene)amino)oxy)methyl)phenyl)-7-phenylimidazo[1,2-a]pyridin-3-yl)amino)benzoic acid]							TDP1 inhibition [7]: good inhibition
Cc1ncsc1-c1ccc(CNC(=O)[C@@H]2C[C@@H](O)CN2C(=O)[C@@H](NC(=O)COCCOCCn2cc(COc3ccc(-c4nc5cc(-c6ccccc6)ccn5c4Nc4ccc(C(=O)O)cc4)cc3)nn2)C(C)(C)C)cc1 [XZ679, 4-((2-(4-((1-(2-(2-(2-(((S)-1-((2S,4R)-4-Hydroxy-2-((4-(4-methylthiazol-5-yl)benzyl)carbamoyl)pyrrolidin-1-yl)-3,3-dimethyl-1-oxobutan-2-yl)amino)-2-oxoethoxy)ethoxy)ethyl)-1H-1,2,3-triazol-4-yl)methoxy)phenyl)-7-phenylimidazo[1,2-a]pyridin-3-yl)amino)benzoic acid]	exhibit TOP1 degrading activity					exhibit TDP1 degrading activity	IC50 ([2]; Table 10, PROTACs): > 100 µM
N#Cc1ccc(-c2ccc(C=NOCc3ccc(-c4nc5cc(-c6ccccc6)ccn5c4Nc4ccc(C(=O)O)cc4)cc3)cc2)nc1 [Compound 106-D1, 4-((2-(4-((((4-(5-cyanopyridin-2-yl)benzylidene)amino)oxy)methyl)phenyl)-7-phenylimidazo[1,2-a]pyridin-3-yl)amino)benzoic acid]							inhibition at 100 µM [7]: > 90%
N#Cc1ccc(-c2ccc(/C=N/OCc3ccc(-c4nc5cc(-c6ccccc6)ccn5c4Nc4ccc(C(=O)O)cc4)cc3)cc2)nc1 [XZ701, (E)-4-((2-(4-((((4-(5-Cyanopyridin-2-yl)benzylidene)amino)oxy)methyl)phenyl)-7-phenylimidazo[1,2-a]pyridin-3-yl)amino)benzoic acid]	exhibit TOP1 degrading activity		exhibit synergy with camptothecin	exhibit TDP2 degrading activity	0.38 ± 0.06	exhibit TDP1 degrading activity	IC50 ([2]; Table 7, HPLC-purified oxime leads): 28.1 ± 8.9 µM; selectivity against TDP1 than against TDP2 [5]: 74 fold; FC (fold change) ([5]; Table 7, ratio of IC50 TDP2 to TDP1): 74; TDP1 inhibition relative to SMM lead 3 ([5]; fold more than SMM lead 3): 10 fold; IC50 [5, 12]: 0.38 ± 0.06 µM
N#Cc1ccc(-c2ccc(Cn3cc(-c4ccn5c(Nc6ccc(C(=O)O)cc6)c(-c6ccccc6)nc5c4)nn3)cc2)nc1 [XZ722, 4-((7-(1-(4-(5-Cyanopyridin-2-yl)benzyl)-1H-1,2,3-triazol-4-yl)-2-phenylimidazo[1,2-a]pyridin-3-yl)amino)benzoic acid]	exhibit TOP1 degrading activity	18 ± 1.2		exhibit TDP2 degrading activity	5.95 ± 1.25	exhibit TDP1 degrading activity	FC (fold change) [5, 11]: 3
O=C(O)c1ccc(Nc2c(-c3ccccc3)nc3cnccn23)cc1C(=O)O [Compound 10a, 4-((2-Phenylimidazo[1,2-a]pyrazin-3-yl)amino)phthalic acid]							Ki ([8]; FIG. 1 legend, Lineweaver-Burk analysis, read-out: Inhibitory constant Ki): 110 ± 30.9 µM; Ki ([8]; Table 3, constant of inhibition (FIG. 1), read-out: Ki): 110 ± 30.9 µM; IC50 ([2]; Table 3): > 100 µM; IC50 ([5]; Table 2, imidazo[1,2-a]pyrazin-3-amine core, read-out: IC50): 45.5 µM; IC50 ([5]; Table 3, gel based TDP1 fluorescence assay, read-out: TDP1 IC50): > 100 µM; IC50 ([5]; Table 3, values in brackets (footnote vi), read-out: TDP1 IC50 (μM), separated data from previous experiments): 45.5 µM; Synergy Score ([3]; with camptothecin (CPT), HCT116, 72 h, SynergyFinder 2.0): 4
Cc1cncc(Oc2ccc(C=NOCc3ccc(-c4nc5cc(-c6ccccc6)ccn5c4Nc4ccc(C(=O)O)cc4)cc3)cc2)n1 [Compound 106-P3, 4-((2-(4-((((4-((6-methylpyrazin-2-yl)oxy)benzylidene)amino)oxy)methyl)phenyl)-7-phenylimidazo[1,2-a]pyridin-3-yl)amino)benzoic acid]							inhibition at 100 µM [7]: > 90%
O=C(O)c1ccc(Nc2c(-c3ccc(CON=Cc4ccc(-c5ccccc5)cc4)cc3)nc3cc(-c4ccccc4)ccn23)cc1 [Compound 106-M10, 4-((2-(4-(((([1,1′-biphenyl]-4-ylmethylene)amino)oxy)methyl)phenyl)-7-phenylimidazo[1,2-a]pyridin-3-yl)amino)benzoic acid]							TDP1 inhibition [7]: poor inhibition
